{"source": "patent US6630516B2", "about": "“Methods and compositions for preventing and treating chronological aging in human skin” (The Regents of the University of Michigan, priority 1997, dated 2003)", "key": {"MMP-2": {"tested_on": "MMP-2", "test": "Gelatin zymography in biopsies of treated elderly skin (MMP-2)", "format": "in vivo, human", "details": "seven days after a single retinol treatment, vs vehicle only", "from_the_text": "(§1) We also used the biopsies from the aforementioned volunteers to determine the effect of the same retinoid treatment on the relative activity of the same collagenase enzymes studied for the results shown in FIG. 4. FIGS. 14A, 14B, and 14C depict the average MMP activity levels (for collagenase MMP-1 and gelatinases MMP-9 and MMP-2, respectively) after treatment of elderly individuals with retinol. […] (In FIGS. 14A-14C, the number of subjects for each figure was 10; “*” indicates […] versus the 18-29 year old values, “**” indicates p<0.1, and “***” indicates p<0.001.)\n(§2) Gelatin zymography (Varani et al., op. cit.) was used to assess MMP-2 (72-kD gelatinase; gelatinase A) and MMP9 (92-kD gelatinase; gelatinase B) activity. Tissue extracts were electrophoresed in an 8.5% SDS-polyacrylamide gel containing 1 mg/ml of gelatin. After electrophoresis, the SDS was removed by three sequential washes in 1% Triton X-100. The first two washes were for 20 minutes each and the last was overnight. Quantitation of hydrolysis zone width was done by laser densitometry."}, "procollagen protein": {"tested_on": "procollagen protein", "test": "Procollagen protein levels in chronologically-aged skin after treatment", "format": "in vivo, human", "details": "single application of 1% retinol to chronologically-aged skin, covered with air-permeable adhesive bandage, examined seven days later", "from_the_text": "(§3) In another aspect, this invention is directed to improving, or stimulating, the synthesis of Types I and III procollagen in an elderly person's skin. We have found there is a significant reduction in Types I and III procollagen synthesis in sun-protected skin of many (at least 50% of) aged individuals and that this condition can be treated by the topical application of a retinoid. Procollagen is a protein synthesized by skin fibroblast cells and then secreted into the extracellular medium, where it is converted by naturally occurring enzymes into collagen. Reduced procollagen synthesis in an elderly person's skin is manifest as a reduced presence of procollagen protein in both the upper dermis (extracellular) and in fibroblasts throughout the dermis, and can be determined (e.g.) by immunohistochemistry.\nIt has been found unexpectedly that topical treatment of elderly, chronoaged skin with a retinoid results in a restitution of intracellular procollagen protein levels similar to those observed in young individuals (such as those aged 40 and younger). […] It would be more preferable for elderly persons to apply the retinoid once or twice daily to maintain a therapeutic regimen, although the agent could be applied on a less frequent but preferably regular basis (e.g., every other day, or once weekly). […]"}, "[1]": {"tested_on": "Type III procollagen α1(III) mRNA", "test": "In vivo induction of Type III procollagen mRNA in elderly skin", "design": "species or system human", "details": "1% retinol cream applied once to sun-protected skin, covered with a patch seven days; seven 80+ year old individuals", "experimental": "Seven 80+ year old individuals were treated clinically with 1% retinol cream, applied once to sun-protected skin, covered with a patch, and left undisturbed for seven days.\nNorthern analysis of RNA. Total RNA (e.g., for c-Jun, procollagen α1(III)) was isolated from skin samples by guanidinium hydrochloride lysis and ultracentrifugation (as described by G. J. Fisher et al., “Cellular, immunologic and biochemical characterization of topical retinoic acid-treated human skin,” J Investig. Dermatol, 96:699-707 (1991)). Northern analysis of total RNA (40 μg/lane) with randomly primed ^32P labelled cDNA probes for the particular mRNA to be determined were performed as described by G. J. Fisher et al. (in “All trains retinoic acid induces cellular retinol-binding protein in human skin in vivo,” J Investig. Dermatol, 105:80-86 (1995)). Type III procollagen mRNA was determined using […]."}, "keratinocytes": {"tested_on": "keratinocytes", "test": "Ex vivo cell growth from biopsies after 7-day in vivo treatment (keratinocytes)", "design": "species or system human", "details": "one application of 1% retinol in vivo, occluded seven days, biopsy cells cultured ex vivo; age over 80; p<0.05", "experimental": "(§4) That is, an elderly volunteer was treated with retinol (one application of 1% retinol, occluded for seven days), the treated area was biopsied, and the keratinocytes and fibroblasts from the biopsy were cultured ex vivo. […] In particular, keratinocytes growth increased by about 30% (12A) while fibroblast growth increased by about 200% (12B), with p<0.05 for both. Accordingly, the topical application of a retinoid to aged skin would be expected to increase the number of keratinocytes and/or the number of fibroblasts in the skin.\n(§5) Ex vivo cell growth. Biopsies were minced into small fragments (approximately 15 fragments per tissue piece) and the tissue fragments transferred to plastic cell culture flasks. Culture medium consisted of Dulbecco's Modified Minimal Essential Medium of Eagle with Earle's salts, non-essential amino acids and 10% fetal bovine serum. Tissue fragments were incubated at 37° C. and 5% CO2/95% air for up to one month. Each fragment was scored for whether keratinocytes and/or fibroblasts grew out of the tissue and from this, the percentage of fragments from which keratinocytes and fibroblasts were isolated was determined according to the method of Varani, J., et al., J Clin. Invest., 96, 1747-1756 (1994)."}, "Type I procollagen": {"tested_on": "Type I procollagen", "test": "Stained sectioned biopsies of elderly skin: Type I procollagen", "format": "in vivo, human", "details": "seven days after a single application of 1% retinol; 80+ volunteers; stained sections; vs vehicle", "from_the_text": "(§6) Additional sectioned and stained biopsies from our oldest (80+) group of volunteers after retinoid treatment are depicted in FIG. 18. As noted above, AP-1 induces MMP formation and is formed by the heterodimerization of c-Jun and c-Fos proteins. […] Thus, our invention appears to inhibit c-Jun formation and thereby inhibit the formation of AP-1 and the resulting MMPs. […] (The apparently lower density of procollagen in the dermis in FIG. 18C is an artifact of the section made; there is clearly a higher level of staining in the retinol treated section than in the vehicle treated section.)\nas §3"}, "c-Jun protein": {"tested_on": "c-Jun protein", "test": "Stained sectioned biopsies of elderly skin: c-Jun protein", "format": "in vivo, human", "details": "seven days after a single application of 1% retinol; 80+ volunteers; stained sections", "from_the_text": "As noted above, AP-1 induces MMP formation and is formed by the heterodimerization of c-Jun and c-Fos proteins."}, "fibroblasts": {"tested_on": "fibroblasts", "test": "Ex vivo cell growth from biopsies after 7-day in vivo treatment (fibroblasts)", "design": "species or system human", "details": "one application of 1% retinol in vivo, occluded seven days, biopsy cells cultured ex vivo; age over 80; p<0.05", "experimental": "as §4, §5"}, "MMP-9": {"tested_on": "MMP-9", "test": "Gelatin zymography in biopsies of treated elderly skin (MMP-9)", "format": "in vivo, human", "details": "seven days after a single retinol treatment, vs vehicle only, p<0.001", "from_the_text": "as §1, §2"}, "[2]": {"tested_on": "sun-protected skin of subjects at least 80 years old", "test": "Histology and morphometry of elderly skin biopsied seven days after one topical treatment", "format": "in vivo, human", "from_the_text": "To investigate the treatment of chronologically-aged skin, 17 subjects having an age of at least 80 years old were given one topical treatment with 1% retinol or with vehicle alone, the test area was occluded for seven days, and the test area was then biopsied. The vehicle was composed of a mixture of ethanol and polyethylene glycol in a 70:30 volumetric ratio. In comparing vehicle-treated skin with untreated skin from individuals of the same elderly age range, there were no statistically significant differences in any of the parameters described with reference to FIG. 2, namely the number of fibroblasts and keratinocytes, the epidermal thickness, and undesirable dermal connective tissue features. […] Due to the short duration of the retinoid (retinol) treatment, little change in the number of detrimental dermal connective tissue features (11B) was apparent.\nHistology and morphometry. Replicate 4-mm punch biopsies were obtained from buttock skin of each individual. Formalin-fixed tissue pieces were sectioned, stained with hematoxylin and eosin, randomized and blinded. The sections were examined using an Olympus BX40 microscope in conjunction with a Sony DCX-151 high-resolution camera. Blocked areas 200 μm on a side were isolated using NIH Imager software and epidermal height was assessed at four sites (25 μm apart) in each of two such areas. The same two blocked areas were used for epithelial cell counts. The number of interstitial cell nuclei (i.e., nuclei below the dermo-epidermal juncture, not associated with capillaries) over the entire histological section was determined as a measure of dermal cellularity. The same blinded sections were scored for connective tissue fiber spacing, thickness, degree of disorganization and depth of disorganization, using a scale of 1-9 for each parameter."}, "ERK": {"tested_on": "ERK", "test": "ERK activity assay in biopsies of treated elderly skin", "format": "in vivo, human", "details": "1% retinol applied to sun-protected skin, occluded, examined seven days later; three 80+ year old volunteers; control normalized to one", "excerpt": "Using the same technique as previously described for retinoid treatment (1% retinol applied to sun-protected skin, occluded, and examined seven days later), we treated and then tested three of our 80+ year old volunteers to determine the effect of retinoid treatment on ERK activity. […] ERK phosphorylation and activity assays. ERK1 and ERK2 in skin supernatants were immunoprecipitated with antibodies from Santa Cruz Biotechnology Inc. and assayed for enzymatic activity using myelin basic protein as substrate, as described by J. D. Weber et al. (“Sustained activation of extracellular-signal regulated kinase I (ERK1) is required for the continued expression of cyclin D1 in G1 phase,” Biochem. J., 326:61-68 (1997)). Total and phosphorylated ERK1 and ERK2 in supernatants were determined by Western analysis, using antibodies from New England Biolabs Inc. (Beverly, Mass.)"}, "Type III procollagen": {"tested_on": "Type III procollagen", "test": "Stained sectioned biopsies of elderly skin: Type III procollagen", "format": "in vivo, human", "details": "seven days after a single application of 1% retinol; 80+ volunteers; stained sections; vs vehicle", "from_the_text": "as §6, §3"}, "MMP-1": {"tested_on": "MMP-1", "test": "Matrix metalloproteinase assay (collagenolytic activity) in biopsies of treated elderly skin", "format": "in vivo, human", "details": "seven days after a single retinol treatment, vs vehicle only, p<0.001", "from_the_text": "as §1\nMatrix metalloproteinase assays. Tissue pieces were frozen in liquid nitrogen immediately after biopsy, homogenized in 20 mM Tris HCl (pH 7.6) plus 5 mM CaCl2, and centrifuged at 3000×g for 10 minutes to remove particulates. Ability to release soluble radioactive fragments from 3H-labeled fibrillar Type I collagen (described by Fisher, G. J., et al., Nature, 379, 335-339 (1996) and Hu, C-L, et al., Analytic. Biochem, 88, 638-643 (1978)) was used as a measure of collagenolytic activity. […] Subsequently, 0.2 μCi of collagen substrate (NEN-DuPont, Boston, Mass.) was incubated for 24 hours with 50 μl of tissue extract. […] Radioactivity remaining in the supernatant fluid was then measured and from this, the percentage of substrate hydrolzyed was determined."}, "[3]": {"details": "1% retinol, one topical application, occluded seven days, vs vehicle-treated skin, age 80+"}, "[4]": {"details": "one application of retinol, 7 days, sun-protected skin of an individual, vs vehicle-treated skin"}}, "note": "“Also recorded” adds a separate entry of the source.", "data": [{"smiles": "CC1=C(/C=C/C(C)=C/C=C/C(C)=C/CO)C(C)(C)CCC1", "note": "[retinol]", "values": [{"measurement": "change in the activity of MMP-2", "setting": "MMP-2", "result": "no significant change"}, {"measurement": "procollagen protein levels", "setting": "procollagen protein", "result": "comparable to those found in sun-protected skin of significantly younger individuals"}, {"measurement": "increase in Type III procollagen mRNA from control (vehicle-treated) areas", "setting": "[1]", "result": "about 2.5 times"}, {"measurement": "increase in ex vivo keratinocytes growth", "setting": "keratinocytes", "result": "about 30%"}, {"measurement": "level of Type I procollagen in skin", "setting": "Type I procollagen", "result": "increased; also recorded: enhanced"}, {"measurement": "c-Jun level in elderly skin compared with vehicle-treated skin", "setting": "c-Jun protein", "result": "decreased; also recorded: significantly reduced (almost absent)"}, {"measurement": "increase in ex vivo fibroblast growth", "setting": "fibroblasts", "result": "about 200%"}, {"measurement": "decrease in MMP-9 activity", "setting": "MMP-9", "result": 39, "unit": "%"}, {"measurement": "mean increase in number of keratinocytes per section", "setting": "[2]; 1% retinol, one topical application, occluded seven days, vs vehicle-treated skin of same individuals, age 80+, p<0.001", "result": 273, "unit": "%"}, {"measurement": "mean increase in number of fibroblasts per section", "setting": "[2]; 1% retinol, one topical application, occluded seven days, vs vehicle-treated skin of same individuals, age 80+, p<0.05", "result": 30, "unit": "%"}, {"measurement": "epidermal thickness", "setting": "[2]; [3]", "result": "increased the epidermal thickness substantially; also recorded: thickened"}, {"measurement": "number of detrimental dermal connective tissue features", "setting": "[2]; [3]", "result": "little change"}, {"measurement": "appearance of dermal collagen", "setting": "[2]; [4]", "result": "denser and more regular"}, {"measurement": "interfacial surface area between epidermis and dermis (rete pegs and dermal papillae)", "setting": "[2]; [4]", "result": "increased"}, {"measurement": "ERK activity in vivo compared with vehicle-treated area", "setting": "ERK", "result": "more than doubled"}, {"measurement": "level of Type III procollagen in skin", "setting": "Type III procollagen", "result": "increased; also recorded: enhanced"}, {"measurement": "decrease in MMP-1 activity", "setting": "MMP-1", "result": 48, "unit": "%"}]}]}
